Measured values as given in the supplement of paper PMC7214452.

How the values were obtained:
Assay in all cases: normalized area under the dose-response curve (viability relative to DMSO control) (fraction); higher = less sensitive (more viable cells)
Settings in all cases: exposure time not given
[1] = test system: KMS34 (cancer type: MM)
Experimental: (§1)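 25 myeloma and 15 non-Hodgkin lymphoma cell lines were exposed to each of 76 drugs as 7-point log dilutions (0.01 nM–10 µM) in duplicate. Viability was read with CellTiter-Glo and normalised to DMSO (0.1%) and staurosporine (10 µM) plate controls. Normalised AUC was calculated by the trapezoidal method relative to the negative control.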

[2] = test system: KMS28PE (cancer type: MM)
Experimental: as §1

[3] = test system: U266 (cancer type: MM)
Experimental: as §1

[4] = test system: OPM2 (cancer type: MM)
Experimental: as §1

[5] = test system: FR4 (cancer type: MM)
Experimental: as §1

[6] = test system: SR-786 (cancer type: TCL)
Experimental: as §1

[7] = test system: MM1.S (cancer type: MM)
Experimental: as §1

[8] = test system: SKMM2 (cancer type: MM)
Experimental: as §1

[9] = test system: Se-Ax (cancer type: TCL)
Experimental: as §1

[10] = test system: My-La (cancer type: TCL)
Experimental: as §1

[11] = test system: Granta-519 (cancer type: Mantle)
Experimental: as §1

[12] = test system: JJN3 (cancer type: MM)
Experimental: as §1

[13] = test system: OCI-LY19 (cancer type: DLBCL)
Experimental: as §1

[14] = test system: XG2 (cancer type: MM)
Experimental: as §1

[15] = test system: OCI-MY5/CRBN (cancer type: MM)
Experimental: as §1

[16] = test system: OCI-MY5 (cancer type: MM)
Experimental: as §1

[17] = test system: KMS12PE (cancer type: MM)
Experimental: as §1

[18] = test system: KMS18 (cancer type: MM)
Experimental: as §1

[19] = test system: SU-DHL1 (cancer type: TCL)
Experimental: as §1

[20] = test system: OCI-MY7 (cancer type: MM)
Experimental: as §1

[21] = test system: JeKo-1 (cancer type: Mantle)
Experimental: as §1

[22] = test system: KMS26 (cancer type: MM)
Experimental: as §1

[23] = test system: SU-DHL6 (cancer type: DLBCL)
Experimental: as §1

[24] = test system: MM1.R (cancer type: MM)
Experimental: as §1

[25] = test system: AMO1 (cancer type: MM)
Experimental: as §1

[26] = test system: NCI-H929 (cancer type: MM)
Experimental: as §1

[27] = test system: Mino (cancer type: Mantle)
Experimental: as §1

[28] = test system: Karpas-299 (cancer type: TCL)
Experimental: as §1

[29] = test system: OCI-MY5/Vec (cancer type: MM)
Experimental: as §1

[30] = test system: OCI-LY1 (cancer type: DLBCL)
Experimental: as §1

[31] = test system: KMS11 (cancer type: MM)
Experimental: as §1

[32] = test system: OCI-LY3 (cancer type: DLBCL)
Experimental: as §1

[33] = test system: EJM (cancer type: MM)
Experimental: as §1

[34] = test system: JVM2 (cancer type: Mantle)
Experimental: as §1

[35] = test system: RPMI 8226 (cancer type: MM)
Experimental: as §1

[36] = test system: HuT 78 (cancer type: TCL)
Experimental: as §1

[37] = test system: KMS28BM (cancer type: MM)
Experimental: as §1

[38] = test system: LP1 (cancer type: MM)
Experimental: as §1

[39] = test system: SU-DHL2 (cancer type: DLBCL)
Experimental: as §1

[40] = test system: L363 (cancer type: MM)
Experimental: as §1

| SMILES | normalized area under the dose-response curve [1] | normalized area under the dose-response curve [2] | normalized area under the dose-response curve [3] | normalized area under the dose-response curve [4] | normalized area under the dose-response curve [5] | normalized area under the dose-response curve [6] | normalized area under the dose-response curve [7] | normalized area under the dose-response curve [8] | normalized area under the dose-response curve [9] | normalized area under the dose-response curve [10] | normalized area under the dose-response curve [11] | normalized area under the dose-response curve [12] | normalized area under the dose-response curve [13] | normalized area under the dose-response curve [14] | normalized area under the dose-response curve [15] | normalized area under the dose-response curve [16] | normalized area under the dose-response curve [17] | normalized area under the dose-response curve [18] | normalized area under the dose-response curve [19] | normalized area under the dose-response curve [20] | normalized area under the dose-response curve [21] | normalized area under the dose-response curve [22] | normalized area under the dose-response curve [23] | normalized area under the dose-response curve [24] | normalized area under the dose-response curve [25] | normalized area under the dose-response curve [26] | normalized area under the dose-response curve [27] | normalized area under the dose-response curve [28] | normalized area under the dose-response curve [29] | normalized area under the dose-response curve [30] | normalized area under the dose-response curve [31] | normalized area under the dose-response curve [32] | normalized area under the dose-response curve [33] | normalized area under the dose-response curve [34] | normalized area under the dose-response curve [35] | normalized area under the dose-response curve [36] | normalized area under the dose-response curve [37] | normalized area under the dose-response curve [38] | normalized area under the dose-response curve [39] | normalized area under the dose-response curve [40] |
| --- | --- | --- | --- | --- | --- | --- | --- | --- | --- | --- | --- | --- | --- | --- | --- | --- | --- | --- | --- | --- | --- | --- | --- | --- | --- | --- | --- | --- | --- | --- | --- | --- | --- | --- | --- | --- | --- | --- | --- | --- |
| COC(=O)c1ccc2c(c1)NC(=O)/C2=C(\Nc1ccc(N(C)C(=O)CN2CCN(C)CC2)cc1)c1ccccc1 [Nintedanib] | 0.835 | 0.737 | 0.941 | 0.844 | 0.911 | 0.828 | 0.79 | 0.943 | 0.92 | 0.902 | 0.942 | 0.979 | 0.906 | 0.764 | 0.929 | 0.846 | 0.94 | 0.934 | 0.839 | 0.97 | 0.933 | 0.764 | 0.919 | 0.84 | 0.801 | 0.87 | 0.956 | 0.862 | 0.957 | 0.98 | 0.723 | 0.992 | 0.784 | 0.815 | 0.791 | 0.883 | 0.87 | 0.828 | 0.966 | 0.798 |
| C=CC(=O)Nc1cc(Nc2nccc(-c3cn(C)c4ccccc34)n2)c(OC)cc1N(C)CCN(C)C [Osimertinib] | 0.337 | 0.476 | 0.451 | 0.489 | 0.582 | 0.521 | 0.44 | 0.506 | 0.445 | 0.769 | 0.834 | 0.439 | 0.872 | 0.422 | 0.551 | 0.399 | 0.46 | 0.442 | 0.463 | 0.42 | 0.626 | 0.532 | 0.911 | 0.45 | 0.423 | 0.47 | 0.601 | 0.574 | 0.535 | 0.937 | 0.417 | 0.931 | 0.429 | 0.597 | 0.429 | 0.473 | 0.53 | 0.406 | 0.925 | 0.466 |
| CC(=O)O[C@H]1C(=O)[C@@]2(C)[C@H]([C@H](OC(=O)c3ccccc3)[C@]3(O)C[C@H](OC(=O)[C@H](O)[C@@H](NC(=O)c4ccccc4)c4ccccc4)C(C)=C1C3(C)C)[C@]1(OC(C)=O)CO[C@@H]1C[C@@H]2O [Paclitaxel] | 0.787 | 0.675 | 0.51 | 0.89 | 0.703 | 0.417 | 0.52 | 0.98 | 0.635 | 0.896 | 0.544 | 0.993 | 0.652 | 0.542 | 0.595 | 0.666 | 0.85 | 0.702 | 0.611 | 0.86 | 0.3 | 0.767 | 0.793 | 0.58 | 0.595 | 0.49 | 0.556 | 0.454 | 0.478 | 0.354 | 0.853 | 0.582 | 0.751 | 0.78 | 0.781 | 0.329 | 0.698 | 0.865 | 0.642 | 0.726 |
| CC(=O)c1c(C)c2cnc(Nc3ccc(N4CCNCC4)cn3)nc2n(C2CCCC2)c1=O [Palbociclib] | 0.751 | 0.851 | 0.688 | 0.852 | 0.716 | 0.821 | 0.69 | 0.782 | 0.776 | 0.745 | 0.876 | 0.694 | 0.727 | 0.656 | 0.9 | 0.561 | 0.74 | 0.81 | 0.705 | 0.82 | 0.656 | 0.769 | 0.771 | 0.77 | 0.529 | 0.91 | 0.655 | 0.837 | 0.746 | 0.889 | 0.79 | 0.791 | 0.733 | 0.65 | 0.636 | 0.712 | 0.932 | 0.794 | 0.897 | 0.743 |
